Here are results for 2 molecules from article PMC12152883, “Bile acids inhibit equilibrative adenosine transport to alter adenosine receptor signaling in cholestasis” (The Journal of Biological Chemistry, 2025).

The target of one test is T1, ENT2 (Homo sapiens, UniProt Q14542).
T1 sequence (Q14542 1-456): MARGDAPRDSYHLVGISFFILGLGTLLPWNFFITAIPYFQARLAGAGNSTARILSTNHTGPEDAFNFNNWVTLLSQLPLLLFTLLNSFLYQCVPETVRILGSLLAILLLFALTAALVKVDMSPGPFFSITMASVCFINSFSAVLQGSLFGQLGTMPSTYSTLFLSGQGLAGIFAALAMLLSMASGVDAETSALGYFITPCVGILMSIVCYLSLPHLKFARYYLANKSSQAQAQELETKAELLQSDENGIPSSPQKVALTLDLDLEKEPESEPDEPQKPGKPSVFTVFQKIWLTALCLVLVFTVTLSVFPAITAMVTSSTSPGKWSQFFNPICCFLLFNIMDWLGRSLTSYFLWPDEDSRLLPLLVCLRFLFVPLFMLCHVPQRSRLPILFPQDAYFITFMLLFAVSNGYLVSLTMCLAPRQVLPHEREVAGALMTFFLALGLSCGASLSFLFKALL
Kind of test: BA transport by ENT2-injected oocytes quantified by LC-MS/MS. It counts as cell-based. The arrangement: expressed in transfected cells; host or cells: Xenopus laevis oocytes injected with in vitro-transcribed capped mRNA from pOX-hENT2. Particulars: pH 7.4, p < 0.001 compared with water-injected oocytes. The procedure:
Therefore, we studied several different BAs and used a liquid chromatography–tandem mass spectrometry (LC‒MS/MS) method to quantify the transport activity of H2O-injected and ENT2 mRNA-injected oocytes using TCA as a positive control. […] We subsequently tested the ability of ENT2 to transport BAs at different physiological pH values ranging from pH 5.5 to pH 7.4 by varying the pH of the transport buffers in which the assay was conducted.
The mass spectrometric validation of the transport of all metabolites was performed with oocytes using a previously reported method ([24]). […] After an incubation at 4 °C for 24 h, the samples were centrifuged at 20,000g for 10 min, and the supernatants were collected. The samples (10 μl) were injected into a Thermo Scientific Vanquish UPLC system interfaced with a Thermo Scientific TSQ Quantiva triple-stage quadrupole mass spectrometer equipped with an H-ESI ion source. MS detection was conducted in negative ionization mode, and the transitions monitored for each metabolite are listed in Sup. Table S2. The operational mass spectrometric parameters included a capillary voltage of 4.5 kV; sheath gas of 35 arbitrary units; auxiliary gas of 10 arbitrary units; sweep gas of two arbitrary units; ion transfer tube temperature of 350 °C; vaporizer temperature of 450 °C; dwell time of 50 ms per transition; collision energy of 5 V; and collision-induced dissociation gas of 1.5 mTorr. Chromatographic separation was performed on a Kinetex […] (100 × 2.1 mm; 1.7 μm particle size) from Phenomenex. The mobile phase consisted of solvent A: water (0.1% formic acid) and solvent B: acetonitrile (0.1% formic acid). The flow rate was set at 0.3 ml/min, and the autosampler was maintained at 4 °C throughout the analysis.

Test [1] in a line: Cholestatic mouse model: liver CA, 13C-Ado and total Ado by LC/MS-MS. It counts as in vivo. Particulars: includes endogenous Ado.
Procedure: We also examined the total Ado content (includes endogenous Ado) in the harvested mouse livers using LC‒MS‒MS.
Adenosine and ^13C-Ado concentrations were determined in liver tissue samples using a targeted LC‒MS/MS method. The liver samples (∼50 mg) were homogenized with 80% methanol and spiked with 1 μg/ml reserpine as an internal standard. The samples were thoroughly vortexed for 30 s and then centrifuged at 20,000g for 10 min. The supernatant was collected in labeled Eppendorf tubes, and 15 μl of each sample was injected into the LC‒MS/MS system. […] The operational mass spectrometric parameters included a capillary voltage of 4.5 kV; sheath gas of 35 arbitrary units; auxiliary gas of 10 arbitrary units; sweep gas of two arbitrary units; ion transfer tube temperature of 350 °C; vaporizer temperature of 450 °C; dwell time of 50 ms per transition, and collision-induced dissociation gas of 1.5 mTorr. The collision energy was set at 20 V for both Ado and ^13C-Ado, whereas it was set to 38 V for reserpine. Chromatographic separation was performed on a Scherzo SMC18 column (150 × 4.6 mm; 3 μm particle size) from Imtakt. […]
Two hours after the injection, mouse livers were harvested, and the amount of ^13C-Ado uptake in the liver was quantified via LC–MS-MS. […]
The test system of a further test is PKA. Kind of test: PKA activity in CA-treated HeLa cells. It counts as cell-based. As to conditions: 100 μM CA, 14 h; control 0.27 ± 0.016.
The test system of the next test is cAMP. Put plainly: cAMP levels in CA-treated HeLa cell lysate. Particulars: 100 μM CA, 14 h; control 0.96 ± 0.14. It is filed as cell-based. Background: Cyclic AMP is a second messenger, typically raised through Gs and lowered through Gi signalling.
In the next test the test system is PKC. Kind of test: PKC activity in CA-treated HeLa cells. It is filed as cell-based. As to conditions: 100 μM CA, 14 h; control 0.01 ± 0.002. The procedure: (§1) High concentrations of BAs that inhibit ENT-mediated Ado transport could lead to an increase in extracellular Ado levels and therefore impact cell surface AdoR signaling.
(§2) PKC activity was measured using PKC kinase activity kit (ADI-EKS-420A) purchased from Enzo Biochem. IP3 levels were quantified using an IP3 (Inositol Triphosphate) ELISA Kit (EKF58173) supplied by Biomatik Corporation.

The test system of a further test is IP3. Put plainly: IP3 levels in CA-treated HeLa cells. It is filed as cell-based. Particulars: 100 μM CA, 14 h; control 0.011 ± 0.0004. The procedure: as §1, §2

In the case of `C[C@H](CCC(=O)NCCS(=O)(=O)O)[C@H]1CC[C@H]2[C@@H]3[C@H](O)C[C@@H]4C[C@H](O)CC[C@]4(C)[C@H]3C[C@H](O)[C@]12C` [TCA, taurocholic acid], the “transport by ENT2 mRNA-injected vs water-injected oocytes (LC-MS/MS)” value on ENT2 is “significant transport”.

For `C[C@H](CCC(=O)O)[C@H]1CC[C@H]2[C@@H]3[C@H](O)C[C@@H]4C[C@H](O)CC[C@]4(C)[C@H]3C[C@H](O)[C@]12C` [CA, cholic acid], the “reduction in the total Ado level in liver compared with control mice” value in test [1] is around 12%. Moreover, in the test on PKA, the “PKA activity in HeLa cells” value is on record as 0.54 ± 0 U/μg protein. Further, the “cAMP levels in total HeLa cell lysate” value in the test on cAMP is 1.28 ± 0.04 pMol/μg protein. Also, the “PKC activity in HeLa cells” value in the test on PKC turned out to be 0.02 ± 0.0001 U/μg protein. Further, the “IP3 levels in HeLa cells” value in the test on IP3 is given as 0.023 ± 0.0006 μg/μg protein. Also, the “transport by ENT2 mRNA-injected vs water-injected oocytes (LC-MS/MS)” value on ENT2 is listed as “significant transport”.
